Assay results: patent US20140135310A1, “SULPHONAMIDE DERIVATIVES OF ALICYCLIC AMINES FOR THE TREATMENT OF CENTRAL NERVOUS SYSTEM DISEASES” (Adamed Sp. z o.o., priority 2011, published 2014)

Key:
[1] = molecular target: T1, 5-HT1A receptor (rat hippocampus) (Rattus norvegicus, UniProt P19327); assay: Radioligand binding assay, serotoninergic 5-HT1A receptors; settings: binding assay result in %, Table 5a;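 also: test compound at 1 µM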
T1 construct: hippocampus; from tissue; host or cells: rat hippocampus
T1 sequence (P19327 1-422): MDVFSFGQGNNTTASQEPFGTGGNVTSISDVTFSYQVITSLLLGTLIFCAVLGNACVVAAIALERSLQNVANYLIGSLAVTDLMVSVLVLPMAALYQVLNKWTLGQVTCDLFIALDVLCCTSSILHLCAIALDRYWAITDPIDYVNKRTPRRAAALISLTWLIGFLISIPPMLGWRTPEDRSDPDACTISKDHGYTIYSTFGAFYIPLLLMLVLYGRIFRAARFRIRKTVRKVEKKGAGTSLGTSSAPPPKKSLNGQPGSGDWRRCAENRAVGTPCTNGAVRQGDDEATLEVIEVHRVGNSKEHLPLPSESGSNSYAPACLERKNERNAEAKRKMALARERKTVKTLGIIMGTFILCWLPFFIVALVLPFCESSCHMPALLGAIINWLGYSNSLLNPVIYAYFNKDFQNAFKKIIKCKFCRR

receptors D4.4 = molecular target: T2, receptors D4.4 (Homo sapiens, UniProt P21917); assay: Radioligand binding assay, dopaminergic D4 (D4.4) receptors; settings: test compound 1×10^−6 M
T2 sequence (P21917 1-419): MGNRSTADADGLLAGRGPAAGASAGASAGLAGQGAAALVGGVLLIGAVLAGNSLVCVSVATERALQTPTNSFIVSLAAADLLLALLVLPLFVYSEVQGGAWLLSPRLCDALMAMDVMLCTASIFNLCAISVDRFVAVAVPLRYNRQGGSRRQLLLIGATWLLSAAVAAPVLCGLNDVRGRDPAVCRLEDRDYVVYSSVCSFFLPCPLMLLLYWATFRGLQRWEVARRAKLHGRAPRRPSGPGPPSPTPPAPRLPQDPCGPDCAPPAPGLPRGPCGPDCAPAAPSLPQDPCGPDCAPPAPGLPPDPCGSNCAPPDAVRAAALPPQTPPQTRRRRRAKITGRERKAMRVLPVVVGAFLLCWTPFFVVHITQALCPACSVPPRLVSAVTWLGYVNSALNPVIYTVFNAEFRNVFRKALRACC
In short: (§1)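 Competition radioligand binding at human D2, D3 and D4.4 receptors, detected by scintillation counting; nonspecific binding defined with excess unlabelled ligand. Results as percent inhibition of control specific binding; IC50 by Hill-equation nonlinear regression; Ki via Cheng-Prusoff, with radioligand KD from Scatchard plot.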

σ receptors = assay: Radioligand binding assay, σ receptors; settings: rat cerebral cortex, [3H]DTG 8 nM
In short: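 Values derive from radioligand displacement, with non-specific binding defined by excess cold ligand and detection by scintillation. Hill-fit IC50s were converted to Ki via Cheng-Prusoff using Scatchard-derived Kd; percent inhibition of control specific binding also reported.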

5-HT6 receptor = molecular target: T3, 5-HT6 receptor (Homo sapiens, UniProt P50406); assay: Radioligand binding assay, serotoninergic 5-HT6 receptors; settings: for inhibition at 1 µM: binding assay result in %, Table 5a; for Ki: read-out: Inhibition constants Ki, 5-HT6
T3 construct: purchased PerkinElmer
In short: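 Values are Ki from Cheng–Prusoff, taking IC50 from Hill nonlinear regression of competition curves and KD from a Scatchard plot. Specific binding was total minus binding with excess unlabelled ligand. Radioligand displacement was detected by scintillation counting, and data were also reported as percent of control specific binding.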

[2] = molecular target: dopaminergic receptors D3 (Homo sapiens, UniProt P35462); assay: Radioligand binding assay, dopaminergic D3 receptors; settings: test compound 1×10^−6 M
In short: as §1

[3] = molecular target: T4, H1 histaminergic receptors (Homo sapiens, UniProt P35367); assay: Radioligand binding assay, histaminergic H1 receptors; settings: human recombinant (HEK-293 cells), [3H]pyrilamine 1 nM
T4 construct: expressed in transfected cells; host or cells: HEK-293 cells
In short: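 Competition binding at human H1 receptors; specific binding taken as total minus non-specific binding in excess unlabelled ligand, scintillation read-out. IC50 from Hill-equation fit of competition curves; Ki by Cheng-Prusoff using radioligand concentration and Kd (from Scatchard plot).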

5-HT7 receptor = molecular target: T5, 5-HT7 receptor (Homo sapiens, UniProt P34969); assay: Radioligand binding assay, serotoninergic 5-HT7 receptors; settings: binding assay result in %, Table 5a;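 also: test compound at 1 µM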
T5 construct: purchased PerkinElmer
In short: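 Competition binding at human 5-HT7 receptors with a radioligand, detected by scintillation counting; non-specific binding was defined with excess unlabelled ligand. IC50 came from Hill-equation fits of competition curves, and Ki from Cheng–Prusoff using radioligand concentration and Scatchard-derived KD.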

dopaminergic receptors D3, sequence (P35462 whole entry): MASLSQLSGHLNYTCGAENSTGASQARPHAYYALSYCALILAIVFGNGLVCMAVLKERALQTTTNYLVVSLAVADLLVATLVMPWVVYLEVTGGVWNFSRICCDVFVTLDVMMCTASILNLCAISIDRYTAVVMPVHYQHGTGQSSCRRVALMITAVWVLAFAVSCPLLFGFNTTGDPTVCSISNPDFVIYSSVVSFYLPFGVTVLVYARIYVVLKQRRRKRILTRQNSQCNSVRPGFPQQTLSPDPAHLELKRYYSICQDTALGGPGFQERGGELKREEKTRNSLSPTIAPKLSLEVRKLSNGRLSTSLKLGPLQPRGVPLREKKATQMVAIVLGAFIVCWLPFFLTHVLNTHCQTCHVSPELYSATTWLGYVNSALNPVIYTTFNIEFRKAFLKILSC
T5 sequence (P34969 whole entry): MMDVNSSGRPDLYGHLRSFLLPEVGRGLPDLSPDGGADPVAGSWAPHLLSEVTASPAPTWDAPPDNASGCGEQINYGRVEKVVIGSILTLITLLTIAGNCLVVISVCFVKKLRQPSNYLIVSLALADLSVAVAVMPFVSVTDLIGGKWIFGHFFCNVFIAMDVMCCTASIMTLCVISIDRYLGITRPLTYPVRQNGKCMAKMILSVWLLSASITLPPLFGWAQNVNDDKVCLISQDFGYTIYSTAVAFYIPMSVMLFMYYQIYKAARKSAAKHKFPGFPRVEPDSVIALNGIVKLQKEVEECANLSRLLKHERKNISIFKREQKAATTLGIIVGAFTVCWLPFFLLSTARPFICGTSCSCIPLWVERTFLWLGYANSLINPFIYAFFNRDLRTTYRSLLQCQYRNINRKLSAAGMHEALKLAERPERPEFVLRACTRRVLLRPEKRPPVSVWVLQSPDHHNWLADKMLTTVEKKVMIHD
T4 sequence (P35367 whole entry): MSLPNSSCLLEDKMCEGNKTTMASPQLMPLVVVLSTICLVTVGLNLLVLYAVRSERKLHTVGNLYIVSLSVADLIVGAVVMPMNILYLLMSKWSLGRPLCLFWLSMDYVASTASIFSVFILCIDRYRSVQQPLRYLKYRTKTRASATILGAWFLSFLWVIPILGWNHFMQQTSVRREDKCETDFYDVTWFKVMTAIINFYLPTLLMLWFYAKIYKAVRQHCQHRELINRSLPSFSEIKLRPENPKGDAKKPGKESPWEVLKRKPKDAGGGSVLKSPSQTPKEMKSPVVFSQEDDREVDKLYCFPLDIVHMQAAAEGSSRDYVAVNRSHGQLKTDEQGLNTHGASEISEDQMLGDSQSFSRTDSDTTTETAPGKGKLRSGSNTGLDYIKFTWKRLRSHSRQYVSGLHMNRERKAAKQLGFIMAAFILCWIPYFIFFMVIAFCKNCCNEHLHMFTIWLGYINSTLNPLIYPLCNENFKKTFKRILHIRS
T3 sequence (P50406 whole entry): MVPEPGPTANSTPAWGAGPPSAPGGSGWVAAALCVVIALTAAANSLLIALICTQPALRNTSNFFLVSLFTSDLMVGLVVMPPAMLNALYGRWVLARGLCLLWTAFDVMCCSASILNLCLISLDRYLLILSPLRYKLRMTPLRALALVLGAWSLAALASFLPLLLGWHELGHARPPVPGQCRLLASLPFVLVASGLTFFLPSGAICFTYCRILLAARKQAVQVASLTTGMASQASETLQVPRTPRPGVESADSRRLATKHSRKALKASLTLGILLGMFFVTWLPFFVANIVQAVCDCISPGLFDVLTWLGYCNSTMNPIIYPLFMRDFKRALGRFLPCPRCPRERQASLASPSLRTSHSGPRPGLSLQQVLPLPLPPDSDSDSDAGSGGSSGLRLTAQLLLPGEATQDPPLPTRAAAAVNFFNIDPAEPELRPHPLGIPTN

Row | Compound | inhibition at 1 µM [1] [%] | inhibition at 1 µM (receptors D4.4) [%] | σ [%] (σ receptors) | inhibition at 1 µM (5-HT6 receptor) [%] | inhibition at 1 µM [2] [%] | inhibition at 1 µM [3] [%] | inhibition at 1 µM (5-HT7 receptor) [%] | Ki (5-HT6 receptor) [nM]
1 | CC1(C)Cc2cccc(OCCN3CCC(NS(=O)(=O)c4ccc5ccccc5c4)C3)c2O1 (stereo not shown) [Compound 108, N-[1-[2-[(2,2-Dimethyl-3H-benzofuran-7-yl)oxy]ethyl]pyrrolidin-3-yl]naphthalene-2-sulphonamide] | 98 | 85 | 45 | 59 | 95 | 23 | 98 | –
2 | O=S(=O)(NCC1CN(CCCc2noc3cc(F)ccc23)C1)c1ccc2scnc2c1 [Compound 132, N-[[1-[3-(6-Fluoro-1,2-benzoxazol-3-yl)propyl]azetidin-3-yl]methyl]-1,3-benzothiazole-5-sulphonamide] | 57 | 39 | 80 | 69 | 60 | 33 | 94 | –
3 | O=S(=O)(NC1CCN(CCOc2cccc3ccccc23)C1)c1ccc2ccccc2c1 (stereo not shown) [Compound 116, N-[1-[2-(1-Naphthyloxy)ethyl]pyrrolidin-3-yl]naphthalene-2-sulphonamide] | 99 | 64 | 56 | 95 | 98 | – | -49 | 71
4 | O=S(=O)(NCC1CN(CCCc2noc3cc(F)ccc23)C1)c1cccc2ccccc12 [Compound 133, N-[[1-[3-(6-Fluoro-1,2-benzoxazol-3-yl)propyl]azetidin-3-yl]methyl]-naphthalene-1-sulphonamide] | 52 | 88 | 93 | 92 | 74 | 58 | 97 | –
5 | Cc1c(S(=O)(=O)NCC2CN(CCCc3noc4cc(F)ccc34)C2)sc2ccc(Cl)cc12 [Compound 131, 5-Chloro-N-[[1-[3-(6-fluoro-1,2-benzoxazol-3-yl)propyl]azetidin-3-yl]-methyl]-3-methyl-benzothiophene-2-sulphonamide] | 87 | 50 | 92 | 97 | 94 | 51 | 95 | 9
6 | CC1(C)Cc2cccc(OCCN3CCC(NS(=O)(=O)c4cccc(O)c4)C3)c2O1 (stereo not shown) [Compound 107, N-[1-[2-[(2,2-Dimethyl-3H-benzofuran-7-yl)oxy]ethyl]pyrrolidin-3-yl]-3-hydroxybenzenesulphonamide] | 100 | 83 | 47 | 39 | 97 | 30 | 84 | –
7 | O=S(=O)(NCC1CCN(CCOc2cccc3ccccc23)C1)c1ccc2ccccc2c1 (stereo not shown) [Compound 124, N-[[1-[2-(1-Naphthyloxy)ethyl]pyrrolidin-3-yl]methyl]naphthalene-2-sulphonamide] | 99 | 54 | 82 | 99 | 94 | – | 99 | –
8 | Cc1c(S(=O)(=O)NCC2CN(CCCc3noc4cc(F)ccc34)C2)sc2ccc(F)cc12 [Compound 130, 5-Fluoro-N-[[1-[3-(6-fluoro-1,2-benzoxazol-3-yl)propyl]azetidin-3-yl]methyl]-3-methyl-benzothiophene-2-sulphonamide] | 85 | 67 | 94 | 98 | 94 | 51 | 98 | 9.7
9 | O=S(=O)(NCC1CN(CCCc2noc3cc(F)ccc23)C1)c1ccc2ccccc2c1 [Compound 134, N-[[1-[3-(6-Fluoro-1,2-benzoxazol-3-yl)propyl]azetidin-3-yl]methyl]-naphthalene-2-sulphonamide] | 73 | 77 | 88 | 94 | 80 | 45 | 95 | –
10 | Cc1cccc(S(=O)(=O)NC2CCN(CCCc3c[nH]c4ccc(Cl)cc34)C2)c1 (stereo not shown) [Compound 86, N-[1-[3-(5-chloro-1H-indol-3-yl)propyl]pyrrolidin-3-yl]-3-methyl-benzenesulphonamide] | 101 | 88 | 65 | 98 | 97 | 70 | 98 | 13
11 | O=S(=O)(NCC1CN(CCOc2cccc3ccccc23)C1)c1ccc2ccccc2c1 [Compound 122, N-[[1-[2-(1-Naphthyloxy)ethyl]azetidin-3-yl]methyl]naphthalene-2-sulphonamide] | 99 | 63 | 81 | 99 | 100 | – | 100 | 13
